In one assay the test system is MV-4-11. Kind of assay: Tumor cell proliferation inhibition (CellTiter-Meiluncell Luminescent Cell Viability Assay). It counts as cell-based. The settings on record: Homo sapiens, 96 hours; for inhibition at 0.01 µM: MV4-11, 10 nM, read-out: Inhibition Rate at 10 nM (%); for inhibition at 0.5 µM: MV4-11, 500 nM, read-out: Inhibition Rate at 500 nM (%). In outline: (§1)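 Following overnight seeding, tumor cells received serial compound dilutions to final levels that included 10 nM and 500 nM. Viability was assessed by luminescence at the end of the specified exposure time. Cultures were kept at 37°C with 5% CO2.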

A further assay concerns SW620. The description is as above. It counts as cell-based. To be noted: Homo sapiens, 96 hours, Table I-6, IRAK4 inhibitors; for inhibition at 0.01 µM: SW-620, 10 nM, read-out: Inhibition Rate at 10 nM (%); for inhibition at 0.5 µM: SW-620, 500 nM, read-out: Inhibition Rate at 500 nM (%). The method in brief: as §1
Another assay relates to JEKO-1. The description is as above. It counts as cell-based. To be noted: Homo sapiens, 96 hours, Table I-6, IRAK4 inhibitors; for inhibition at 0.01 µM: 10 nM, read-out: Inhibition Rate at 10 nM (%); for inhibition at 0.5 µM: 500 nM, read-out: Inhibition Rate at 500 nM (%). In outline: as §1
Another assay relates to MM.1S. The assay is described as above. To be noted: Homo sapiens, MM1.S, MM.1S, 96 hours, Table I-6, IRAK4 inhibitors; for inhibition at 0.01 µM: 10 nM, read-out: Inhibition Rate at 10 nM (%); for inhibition at 0.5 µM: 500 nM, read-out: Inhibition Rate at 500 nM (%). The class given is cell-based. In outline: as §1
Assay [1] deals with T1, human Cereblon WT GST-tagged protein (Homo sapiens, UniProt Q96SW2).
T1 construct: purchased CISBIO 64BDCRBNPEH
As to the kind of experiment: CRBN-binding affinity, HTRF (CEREBLON BINDING kit). To be noted: for inhibition at 0.5 µM: read-out: Inhibition Rate at 0.5 µM (%); for inhibition at 2 µM: read-out: Inhibition Rate at 2 µM (%). In outline:
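Competitive HTRF binding: compounds diluted in diluent #9 incubated with GST-tagged wild-type human Cereblon, thalidomide-Red tracer and anti-GST Eu antibody. Final compound concentrations 2 µM and 0.5 µM.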

In a further assay the target is T2, CDK9 (Homo sapiens, UniProt P50750).
T2 construct: endogenous in cells; host or cells: MDA-MB-231
Kind of assay: Western blot, target protein degradation in MDA-MB-231 Cell. The class given is cell-based. The settings on record: substrate protein remaining %, treated at 500 nM and 50 nM, 24 hours. How it is done: Conventional Western blot assay was performed to evaluate the effects of the compounds of the present disclosure on the expression of target proteins in cells.
(1) Cell Seeding and Protein Harvesting: The selected cells were processed according to the cell seeding procedure and protein harvesting procedure in Table II-2. Table II-2 Cell Seeding and Protein Harvesting Procedures
(2) To the collected supernatant, 5X SDS sample loading buffer was added, followed by denaturation at 95°C for 5 minutes. The denatured samples were then separated by SDS-PAGE electrophoresis on a polyacrylamide gel. Proteins were transferred to a nitrocellulose membrane (0.45 µm NC membrane), blocked with blocking buffer at room temperature for 1 hour, and subjected to antibody incubation and development procedures according to the antibody manufacturer's instructions (Cell Signaling Technology).
Half-Maximal Degradation Concentration value (the drug concentration required for degrading proteins by 50%, abbreviated as DC50) reads method: comparing the grayscale values of Western blot bands from drug-treated samples with those from blank DMSO-treated controls, and identifying the drug concentration range at which the grayscale value is half that of the DMSO-treated control bands.
DC50 values can be calculated using ImageJ software to measure grayscale values of Western blot bands from drug-treated samples. The concentration-response curve is fitted to estimate the drug concentration corresponding to half the grayscale value.
Target protein remaining (%) refers to the percentage of target protein remaining in cells after treatment with protein degrader compounds.
Calculation method for target protein remaining (%): Use ImageJ software to measure grayscale values of Western blot bands from drug (protein degrader)-treated samples. The grayscale value of drug-treated bands is divided by that of internal control protein bands, and the resulting quotient is normalized to obtain the relative percentage of remaining target protein after protein degrader treatment. Target protein degradation rate(%) = 1−target protein remaining(%). [formula]
On the technique in general: Immunoblotting shows a protein as a band on a membrane.

Read-outs that look alike come from different tables or passages of the source.

T2 sequence (P50750 whole entry): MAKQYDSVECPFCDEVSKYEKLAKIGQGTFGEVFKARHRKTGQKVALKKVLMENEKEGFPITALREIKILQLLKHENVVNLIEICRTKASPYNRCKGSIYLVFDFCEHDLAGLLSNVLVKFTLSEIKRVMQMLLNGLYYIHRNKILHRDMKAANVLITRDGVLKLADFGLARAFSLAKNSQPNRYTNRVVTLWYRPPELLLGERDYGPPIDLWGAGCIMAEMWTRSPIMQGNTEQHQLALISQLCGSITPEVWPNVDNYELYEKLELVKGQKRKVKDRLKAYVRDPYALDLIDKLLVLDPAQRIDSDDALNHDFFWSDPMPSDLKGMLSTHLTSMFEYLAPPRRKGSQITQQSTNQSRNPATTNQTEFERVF
T1 sequence (Q96SW2 whole entry): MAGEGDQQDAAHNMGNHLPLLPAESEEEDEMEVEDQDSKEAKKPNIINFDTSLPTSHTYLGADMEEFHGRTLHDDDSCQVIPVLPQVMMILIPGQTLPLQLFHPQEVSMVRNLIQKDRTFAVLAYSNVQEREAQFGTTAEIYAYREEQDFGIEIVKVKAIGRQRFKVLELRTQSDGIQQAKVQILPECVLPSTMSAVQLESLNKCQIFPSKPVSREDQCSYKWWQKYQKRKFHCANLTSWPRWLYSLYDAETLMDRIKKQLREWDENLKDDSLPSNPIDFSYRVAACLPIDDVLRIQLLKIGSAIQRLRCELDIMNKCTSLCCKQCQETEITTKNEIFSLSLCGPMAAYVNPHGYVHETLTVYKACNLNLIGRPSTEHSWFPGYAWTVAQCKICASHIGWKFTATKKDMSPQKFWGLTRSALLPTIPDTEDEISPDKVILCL

As a reminder, the inhibition is how much of the control response was suppressed. Consider `O=C1CCC(N2Cc3cc(CN4CCC(n5cc(NC(=O)c6cnn7ccc(N8CCOCC8)nc67)c(C(F)F)n5)CC4)ccc3C2=S)C(=O)N1` (stereo not shown) [GT-05098, N-(3-(difluoromethyl)-1-(1-((2-(2,6-dioxopiperidin-3-yl)-1-thioxoisoindolin-5-yl)methyl)piperidin-4-yl)-1H-pyrazol-4-yl)-5-morpholinopyrazolo[1,5-a]pyrimidine-3-carboxamide], for which the inhibition at 0.01 µM in the assay with MV-4-11 (Table I-6, IRAK4 inhibitors) is 20 to 30%; with SW620, 10 to 20%; in the assay with JEKO-1, 5 to 10%; in the assay on MM.1S it was 20 to 30%. For the same compound, the inhibition at 0.5 µM in the assay with MV-4-11 (Table I-6, IRAK4 inhibitors) is 80 to 100%; in the assay with SW620, 40 to 50%; in the assay with JEKO-1 it was 20 to 30%; in the assay with MM.1S, 80 to 100%; in assay [1], 80 to 100%. In addition, the inhibition at 2 µM in assay [1] lay within 80 to 100%.
As to `O=C1CCC(N2Cc3cc(CN4CCC(n5cc(NC(=O)c6coc(-c7ccnc(NCC8CC8)c7)n6)c(C(F)F)n5)CC4)ccc3C2=S)C(=O)N1` (stereo not shown) [GT-05286, 2-(2-((cyclopropylmethyl)amino)pyridin-4-yl)-N-(3-(difluoromethyl)-1-(1-((2-(2,6-dioxopiperidin-3-yl)-1-thioxoisoindolin-5-yl)methyl)piperidin-4-yl)-1H-pyrazol-4-yl)oxazole-4-carboxamide], the inhibition at 0.01 µM was 80 to 100% in the assay with MV-4-11 (Table I-6, IRAK4 inhibitors); 60 to 70% in the assay on SW620; 10 to 20% in the assay with JEKO-1; 50 to 60% in the assay with MM.1S. Also, the inhibition at 0.5 µM with MV-4-11 (Table I-6, IRAK4 inhibitors) was in the range of 80 to 100%; with SW620, 70 to 80%; in the assay with JEKO-1 it was 80 to 100%; in the assay on MM.1S it was 80 to 100%; in assay [1], 30 to 40%. Besides, in assay [1], the inhibition at 2 µM fell in the range of 60 to 80%.
Consider `O=C1CCC(N2Cc3cc(CN4CCC(n5cc(NC(=O)c6cnn7ccc(N8C[C@H]9C[C@@H]8CO9)nc67)c(C(F)F)n5)CC4)ccc3C2=S)C(=O)N1` (stereo partly drawn) [GT-05321, 5-((1R,4R)-2-oxa-5-azabicyclo[2.2.1]heptan-5-yl)-N-(3-(difluoromethyl)-1-(1-((2-(2,6-dioxopiperidin-3-yl)-1-thioxoisoindolin-5-yl)methyl)piperidin-4-yl)-1H-pyrazol-4-yl)pyrazolo[1,5-a]pyrimidine-3-carboxamide], for which the inhibition at 0.01 µM in the assay on MV-4-11 (Table I-6, IRAK4 inhibitors) was in the range of 40 to 50%; with SW620 it was 30 to 40%; with JEKO-1, 5 to 10%; in the assay on MM.1S, 30 to 40%. Besides, the inhibition at 0.5 µM with MV-4-11 (Table I-6, IRAK4 inhibitors) lay within 80 to 100%; with SW620, 70 to 80%; in the assay on JEKO-1, 40 to 50%; with MM.1S it was 80 to 100%; in assay [1] it was 60 to 80%. Further, the inhibition at 2 µM in assay [1] was in the range of 80 to 100%.
As for `N#CC1(CNc2nc(-c3cc(NC4CCN(Cc5ccc6c(c5)CN(C5CCC(=O)NC5=O)C6=S)CC4)ncc3Cl)cs2)CCOCC1` (stereo not shown) [GT-08681, 4-(((4-(5-chloro-2-((1-((2-(2,6-dioxopiperidin-3-yl)-1-thioxoisoindolin-5-yl)methyl)piperidin-4-yl)amino)pyridin-4-yl)thiazol-2-yl)amino)methyl)tetrahy dro-2H-pyran-4-carbonitrile], the “Degradation of substrate protein CDK9” value at CDK9 was “A (0% ≤ substrate protein remaining % ≤ 80%)”. For the same compound, in assay [1], the inhibition at 0.5 µM lay within 53 to 60% and the inhibition at 2 µM is 80 to 100%.
With `N#CC1(CNc2cccc(-c3cc(NC4CCN(Cc5ccc6c(c5)CN(C5CCC(=O)NC5=O)C6=S)CC4)ncc3Cl)n2)CCOCC1` (stereo not shown) [GT-08683, 4-(((5'-chloro-2'-((1-((2-(2,6-dioxopiperidin-3-yl)-1-thioxoisoindolin-5-yl)methyl)piperidin-4-yl)amino)-[2,4'-bipyridin]-6-yl)amino)methyl)tetrahy dro-2H-pyran-4-carbonitrile], in the assay on MV-4-11 (Table I-7, CDK9 inhibitors), the inhibition at 0.01 µM is 50 to 60% and the inhibition at 0.5 µM was in the range of 50 to 60%. Further, the “Degradation of substrate protein CDK9” value on CDK9 is “A (0% ≤ substrate protein remaining % ≤ 80%)”. In assay [1], the inhibition at 0.5 µM is 40 to 53% and the inhibition at 2 µM lay within 80 to 100%.
`O=C1CCC(N2Cc3cc(CN4CCN(c5ccc(CC(=O)Nc6cc(C7CCC7)[nH]n6)cc5)CC4)ccc3C2=S)C(=O)N1` (stereo not shown) [GT-08684, N-(5-cyclobutyl-1H-pyrazol-3-yl)-2-(4-(4-((2-(2,6-dioxopiperidin-3-yl)-1-thioxoisoindolin-5-yl)methyl)piperazin-1-yl)phenyl)acetamide]: the “Degradation of substrate protein CDK9” value at CDK9 is listed as “A (0% ≤ substrate protein remaining % ≤ 80%)”. Further, in assay [1], the inhibition at 0.5 µM was 60 to 80% and the inhibition at 2 µM lay in the range of 80 to 100%.
Taken in the same sequence, the figures for `N#CC1(CNc2nc(-c3cc(NC4CCN(Cc5cccc6c5CN(C5CCC(=O)NC5=O)C6=S)CC4)ncc3Cl)cs2)CCOCC1` (stereo not shown) [GT-08685, 4-(((4-(5-chloro-2-((1-((2-(2,6-dioxopiperidin-3-yl)-1-thioxoisoindolin-4-yl)methyl)piperidin-4-yl)amino)pyridin-4-yl)thiazol-2-yl)amino)methyl)tetrahy dro-2H-pyran-4-carbonitrile] were “A (0% ≤ substrate protein remaining % ≤ 80%)”, 53 to 60% and 80 to 100%.
Taken in the same sequence, the figures for `N#CC1(CNc2cccc(-c3cc(NC4CCN(Cc5cccc6c5CN(C5CCC(=O)NC5=O)C6=S)CC4)ncc3Cl)n2)CCOCC1` (stereo not shown) [GT-08687, 4-(((5'-chloro-2'-((1-((2-(2,6-dioxopiperidin-3-yl)-1-thioxoisoindolin-4-yl)methyl)piperidin-4-yl)amino)-[2,4'-bipyridin]-6-yl)amino)methyl)tetrahy dro-2H-pyran-4-carbonitrile] were “A (0% ≤ substrate protein remaining % ≤ 80%)”, 30 to 40% and 60 to 80%.
With `O=C1CCC(N2Cc3c(CN4CCN(c5ccc(CC(=O)Nc6cc(C7CCC7)[nH]n6)cc5)CC4)cccc3C2=S)C(=O)N1` (stereo not shown) [GT-08688, N-(5-cyclobutyl-1H-pyrazol-3-yl)-2-(4-(4-((2-(2,6-dioxopiperidin-3-yl)-1-thioxoisoindolin-4-yl)methyl)piperazin-1-yl)phenyl)acetamide], in the assay on MV-4-11 (Table I-7, CDK9 inhibitors), the inhibition at 0.01 µM lay within 40 to 50% and the inhibition at 0.5 µM was 50 to 60%. Also, the “Degradation of substrate protein CDK9” value at CDK9 is “A (0% ≤ substrate protein remaining % ≤ 80%)”. In assay [1], the inhibition at 0.5 µM fell in the range of 60 to 80% and the inhibition at 2 µM was 80 to 100%.
In the case of `O=C1CCC(N2Cc3ccc(CN4CCN(c5ccc(CC(=O)Nc6cc(C7CCC7)[nH]n6)cc5)CC4)cc3C2=S)C(=O)N1` (stereo not shown) [GT-08753, N-(5-cyclobutyl-1H-pyrazol-3-yl)-2-(4-(4-((2-(2,6-dioxopiperidin-3-yl)-3-thioxoisoindolin-5-yl)methyl)piperazin-1-yl)phenyl)acetamide], the “Degradation of substrate protein CDK9” value on CDK9 was “A (0% ≤ substrate protein remaining % ≤ 80%)”. In addition, in assay [1], the inhibition at 0.5 µM is 60 to 80% and the inhibition at 2 µM was 80 to 100%.

These data come from patent EP4745138A1, “THIO-GLUTARIMIDO ISOINDOLINONE DERIVATIVE, BIFUNCTIONAL PROTEIN DEGRADER CONTAINING SAME, AND USES THEREOF” (Gluetacs Therapeutics (Shanghai) Co., Ltd., priority 2023, dated 2025).
